This passage reports IC50 results from patent publication US11358949B2, “Carbamate and urea compounds as multikinase inhibitors” (ANGEX PHARMACEUTICAL, INC., priority 2017, dated 2022).

In one test the target is FLT4 (Homo sapiens, UniProt P35916). Kind of test: HotSpot Kinase Assay, FLT4.
The next test addresses T1, AXL (Homo sapiens, UniProt P30530).
T1 sequence (P30530 26-894): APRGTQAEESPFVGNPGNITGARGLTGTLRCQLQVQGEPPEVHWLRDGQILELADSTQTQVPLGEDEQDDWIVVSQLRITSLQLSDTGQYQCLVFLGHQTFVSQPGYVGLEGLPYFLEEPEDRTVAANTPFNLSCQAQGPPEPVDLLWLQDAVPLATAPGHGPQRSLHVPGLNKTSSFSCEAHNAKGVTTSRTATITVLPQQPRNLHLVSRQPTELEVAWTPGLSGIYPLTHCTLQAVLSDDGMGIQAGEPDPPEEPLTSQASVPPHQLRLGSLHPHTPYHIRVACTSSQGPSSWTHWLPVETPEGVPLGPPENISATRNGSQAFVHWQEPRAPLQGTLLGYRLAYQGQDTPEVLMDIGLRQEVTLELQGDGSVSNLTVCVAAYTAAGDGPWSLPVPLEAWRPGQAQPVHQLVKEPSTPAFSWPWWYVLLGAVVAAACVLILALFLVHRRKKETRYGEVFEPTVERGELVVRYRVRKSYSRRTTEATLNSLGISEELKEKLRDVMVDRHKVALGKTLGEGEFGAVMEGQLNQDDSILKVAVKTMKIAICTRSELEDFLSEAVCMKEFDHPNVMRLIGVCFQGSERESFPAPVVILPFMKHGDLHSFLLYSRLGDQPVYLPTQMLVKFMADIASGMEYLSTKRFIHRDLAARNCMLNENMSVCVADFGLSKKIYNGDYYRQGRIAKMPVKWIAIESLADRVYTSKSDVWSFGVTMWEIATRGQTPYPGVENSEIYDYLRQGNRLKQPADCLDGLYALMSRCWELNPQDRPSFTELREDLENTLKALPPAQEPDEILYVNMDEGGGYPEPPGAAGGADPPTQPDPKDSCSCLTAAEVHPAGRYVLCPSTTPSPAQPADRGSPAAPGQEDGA
Kind of test: HotSpot Kinase Assay, AXL.

The target of another test is EPHB1 (Homo sapiens, UniProt P54762). Kind of test: HotSpot Kinase Assay, EPHB1.
EPHB1, sequence (P54762 18-984): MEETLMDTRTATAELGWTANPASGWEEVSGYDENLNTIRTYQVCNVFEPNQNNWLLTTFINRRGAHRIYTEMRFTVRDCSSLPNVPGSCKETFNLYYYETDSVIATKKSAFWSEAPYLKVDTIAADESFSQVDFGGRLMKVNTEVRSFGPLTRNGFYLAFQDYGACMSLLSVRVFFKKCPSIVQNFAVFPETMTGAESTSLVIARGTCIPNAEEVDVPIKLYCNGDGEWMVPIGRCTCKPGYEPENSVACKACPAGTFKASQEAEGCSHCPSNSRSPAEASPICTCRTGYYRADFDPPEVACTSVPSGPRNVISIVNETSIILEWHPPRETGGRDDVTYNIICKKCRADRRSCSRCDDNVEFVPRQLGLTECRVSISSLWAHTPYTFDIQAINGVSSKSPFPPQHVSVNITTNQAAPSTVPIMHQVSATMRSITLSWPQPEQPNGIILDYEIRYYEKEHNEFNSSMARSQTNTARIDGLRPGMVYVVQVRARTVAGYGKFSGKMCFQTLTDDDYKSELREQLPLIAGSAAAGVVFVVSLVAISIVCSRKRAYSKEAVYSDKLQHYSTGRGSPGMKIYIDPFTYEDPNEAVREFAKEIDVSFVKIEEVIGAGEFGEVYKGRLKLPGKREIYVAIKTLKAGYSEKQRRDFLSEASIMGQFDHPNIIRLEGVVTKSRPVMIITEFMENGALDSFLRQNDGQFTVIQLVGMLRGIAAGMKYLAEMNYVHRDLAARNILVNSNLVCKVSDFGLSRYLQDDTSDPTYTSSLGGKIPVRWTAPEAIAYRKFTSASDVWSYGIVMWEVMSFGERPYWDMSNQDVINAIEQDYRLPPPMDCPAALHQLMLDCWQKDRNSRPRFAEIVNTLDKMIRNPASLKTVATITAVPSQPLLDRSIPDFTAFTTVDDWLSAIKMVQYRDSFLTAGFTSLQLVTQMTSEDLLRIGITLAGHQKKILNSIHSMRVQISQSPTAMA

SMILES strings stand for the structures.

FLT4, sequence (P35916 25-1363): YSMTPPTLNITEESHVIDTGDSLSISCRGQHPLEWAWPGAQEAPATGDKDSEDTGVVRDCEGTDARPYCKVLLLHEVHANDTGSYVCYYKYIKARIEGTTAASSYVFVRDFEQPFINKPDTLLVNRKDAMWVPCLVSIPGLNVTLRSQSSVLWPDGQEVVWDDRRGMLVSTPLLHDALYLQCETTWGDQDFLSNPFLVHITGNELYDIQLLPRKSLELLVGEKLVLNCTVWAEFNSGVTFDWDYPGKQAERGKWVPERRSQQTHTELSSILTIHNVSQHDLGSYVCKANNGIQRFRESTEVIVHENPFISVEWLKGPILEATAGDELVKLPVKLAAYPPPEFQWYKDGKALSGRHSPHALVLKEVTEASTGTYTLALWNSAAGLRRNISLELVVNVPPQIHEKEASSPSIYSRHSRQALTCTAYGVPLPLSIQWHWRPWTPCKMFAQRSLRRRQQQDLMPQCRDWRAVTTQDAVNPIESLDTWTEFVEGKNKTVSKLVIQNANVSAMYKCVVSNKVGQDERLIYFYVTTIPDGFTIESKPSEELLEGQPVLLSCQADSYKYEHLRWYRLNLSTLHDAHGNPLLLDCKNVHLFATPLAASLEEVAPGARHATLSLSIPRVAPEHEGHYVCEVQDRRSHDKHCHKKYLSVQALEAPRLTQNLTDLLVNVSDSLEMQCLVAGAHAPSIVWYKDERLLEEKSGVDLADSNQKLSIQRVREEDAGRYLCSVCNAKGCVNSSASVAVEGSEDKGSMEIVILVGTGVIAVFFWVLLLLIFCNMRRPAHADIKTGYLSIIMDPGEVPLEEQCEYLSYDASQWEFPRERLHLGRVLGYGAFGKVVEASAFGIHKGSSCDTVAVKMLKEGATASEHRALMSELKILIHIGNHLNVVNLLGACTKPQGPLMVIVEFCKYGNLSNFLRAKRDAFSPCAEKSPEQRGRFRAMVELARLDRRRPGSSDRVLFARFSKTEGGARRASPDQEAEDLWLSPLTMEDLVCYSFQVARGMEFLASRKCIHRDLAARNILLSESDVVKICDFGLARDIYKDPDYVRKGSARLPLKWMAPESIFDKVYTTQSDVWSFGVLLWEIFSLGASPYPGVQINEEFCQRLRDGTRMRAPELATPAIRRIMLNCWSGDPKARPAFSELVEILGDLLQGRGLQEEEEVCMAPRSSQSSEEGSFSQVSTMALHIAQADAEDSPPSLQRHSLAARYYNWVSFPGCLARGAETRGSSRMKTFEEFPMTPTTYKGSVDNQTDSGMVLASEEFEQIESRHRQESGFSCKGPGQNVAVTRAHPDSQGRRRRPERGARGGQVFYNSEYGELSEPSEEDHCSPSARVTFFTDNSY
Procedure for AXL: (§1) Specifically, for each reaction, kinase and substrate were mixed in a pH 7.5 buffer containing 20 mM HEPES, 10 mM MgCl2, 1 mM EGTA [Ethylene glycol-bis(2-aminoethylether)-N,N,N′,N′-tetraacetic acid], 0.02% Brij35, 0.02 mg/mL BSA (Bovine Serum Albumin), 0.1 mM Na3VO4, 2 mM DTT, and 1% DMSO. Compounds were then added to each reaction mixture. After a 20-min incubation, ATP (Sigma-Aldrich) and [γ-^33P] ATP (PerkinElmer) were added at a final total concentration of 100 μM. Reactions were carried out at room temperature for 2 hours and spotted onto P81 ion exchange cellulose chromatography paper (Whatman). […] The percent remaining kinase activity relative to a vehicle-containing (DMSO) kinase reaction was calculated for each kinase/inhibitor pair. […] IC50 values were calculated using Prism 5 (GraphPad).
Procedure for EPHB1: as §1
Procedure for FLT4: as §1

In the case of `COc1cc2c(Oc3ccc(NC(=O)C4(C(=O)Nc5ccc(F)cc5)CC4)cc3)ccnc2cc1OC(=O)N1CCN(C)CC1` [Compound 1-10], the values for the IC50 against FLT4, on AXL and at EPHB1 were 100 to 1000 nM, under 100 nM and 100 to 1000 nM, respectively.
